Entries after “also recorded” stand apart in the source; their conditions may differ.
Tests used:
[1] = system: h543 GSCs; test: Sphere formation assay in patient-derived h543 GSCs; type: cell-based, human; conditions: vs untreated controls
Description: (§1) FIG. 48. […] (A) Dose-response curves of the h676 GSCs treated 7 days with the indicated compounds. (B) Dose-response curves of the h543 GSCs treated 7 days with the indicated compounds. Data are represented as mean±SD.
(§2) Spheres were dissociated into single cells and seeded at a density of 50, 100, 200 and 400 cells/well in a 96 well plate. Neurosphere number was assessed after 7 days. Pictures were taken using Nikon Eclipse Ti-U microscope and neurosphere diameter was measured using NIS Elements BR software.
(§3) Given the promising results the present inventors obtained with the TRF1 chemical modulators in the U251 GBM cell line, the present inventors next set to address the effects of these compounds in two independent patient-derived primary GSCs (h543 and h676) cultures.
(§4) Next, the present inventors set to address whether the different compounds were able to block sphere formation in the h676 and h543 GSCs.

[2] = system: TRF1; test: Western blot of total TRF1 protein in U251 cells; type: cell-based, human; conditions: 10 μM, 24 h or 48 hr
Description: Nuclear protein extracts were obtained using Nuclear Cytosolic Fractionation Kit (Biovision) and protein concentration was determined using the Bio-Rad DC Protein Assay (Bio-Rad). Up to 15 μg of protein per extract were separated in SDS-polyacrylamide gels by electrophoresis. After protein transfer onto nitrocellulose membrane (Whatman), the membranes were incubated with the indicated antibodies. Antibody binding was detected after incubation with a secondary antibody coupled to horseradish peroxidase using chemiluminescence with ECL detection KIT (GE Healthcare)
Quantifications: Protein-band intensities were measured with ImageJ software and normalized against the loading control.
(§5) For in vitro studies, ETP-47228 ETP-47037 and ETP-50946 were dissolved in DMSO at a final concentration of 10 or 5 mM. Cells were treated at a concentration of 10 μM for 24 h or 48 hr.
(§6) To address whether these small molecules could represent a new therapeutic strategy for the treatment of GBM, the present inventors first tested the ability of the three independent TRF1 inhibitory molecules (ETP-47228, ETP-47037 and ETP-50946) to downregulate TRF1 protein levels in the U251 human GBM cell line.

[3] = Sickness, morbidity and pathologies of xenograft mice after long-term treatment; type: in vivo
Description: (§7) h676 and h543 patient-derived GSCs were dissociated using a 200 μl pipet and resuspended in NeuroCult medium and matrigel in a 1:1 ratio in a concentration of 1000 cell/μl. Nude mice (athymic Nude-Foxn1^nu/nu from Harlan) were injected subcutaneously with 100 μl of the cell preparation. ETP-47037 (or vehicle) was orally administrated at a concentration of 75 mg/kg 5 days per week (see also section 8), starting one week after cell injection. The vehicle consisted in 10% N-methyl-2-pyrrolidone (NMP, Sigma Aldrich) and 90% poly ethylene glycol (PEG, Sigma Aldrich). Mice were weighted and tumors were measured every 2-4 days. Tumor area was determined by the following equation: A=π*(a/2)*(b/2), were a and b are tumor length and width respectively.
Histopathological analysis was performed in paraffin embedded tissue sections stained with hematoxylin and eosin (H&E), with the assistance of the CNIO Histopathology Unit and Juana María Flores from the Universidad Complutense de Madrid (UCM).
(§8) Next, the present inventors set to address whether TRF1 chemical inhibition was able to block tumor growth in vivo. […] Thus, the two independent primary GSCs (h676 and h543) were injected subcutaneously into nude mice. […]

[4] = system: TRF1; test: TRF1 nuclear immunofluorescence (TRF1 foci) in U251 cells; type: cell-based, human; conditions: 10 μM, 24 h or 48 hr
Description: For immunofluorescence analyses, cells were plated in a proper density in cell culture μCLEAR plates (Greiner) and fixed in 4% formaldehyde in PBS. Cells were permeabilized with 0.25% Triton in PBS and blocked with 5% BSA in PBS. Tissue sections were fixed in 10% buffered formalin (Sigma) and embedded in paraffin. After deparaffinization and citrate antigen retrieval, sections were permeabilized with 0.5% Triton in PBS and blocked with 1% BSA and 10% Australian FBS ([…]) in PBS. The antibodies were applied overnight in antibody diluents with background reducing agents (Invitrogen).
Immunofluorescence images were obtained using a confocal ultraspectral microscope (Leica TCS-SP5) or the Opera High Content Screening (HCS) system (Perkin Elmer). Quantifications were performed with Definiens software.
as §5, §6

[5] = system: h676 GSCs xenografts; test: Subcutaneous xenograft of patient-derived h676 GSCs in nude mice; type: in vivo
Description: as §7
(§9) For oral administration, ETP-47037 was dissolved in 10% N-methyl-2-pyrrolidone (NMP, Sigma Aldrich) and 90% polyethylene glycol (PEG, Sigma Aldrich) at a concentration of 75 mg/kg.
Next, the present inventors set to address whether TRF1 chemical inhibition was able to block tumor growth in vivo. […] Thus, the two independent primary GSCs (h676 and h543) were injected subcutaneously into nude mice. One week after GSC injection, mice received oral administration of the vehicle (NMP 10%, PEG 90%) as placebo or the ETP-47037 TRF1 inhibitor 5 days/week, every week until human endpoint, and tumors were continuously followed-up by caliper measurements (FIG. 42A).

[6] = system: h676 GSCs; test: Sphere formation assay in patient-derived h676 GSCs; type: cell-based, human; conditions: vs untreated controls
Description: as §1, §2, §3, §4

[7] = Crossing of the brain blood barrier
[8] = system: U251 cells; test: Neurosphere formation assay in U251 cells; type: cell-based, human; conditions: U251 in NSC media; seven days; vs DMSO
Description: as §2
Finally, the present inventors checked if the three chemical compounds had the ability to reduce sternness in these cells. They cultured U251 cells with NSC media in order to obtain a suspension culture enriched in stem cells. The inventors performed a sphere formation assay with these cells treated with ETP-47228, ETP-47037 and ETP-50946 or DMSO for seven days. […] Of note, all these effects recapitulated what the present inventors observed with Trf1 genetic downregulation (See 2.2).

[9] = system: h543 GSCs xenografts; test: Subcutaneous xenograft of patient-derived h543 GSCs in nude mice; type: in vivo; conditions: oral 75 mg/kg 5 days/week, vs vehicle
Description: as §7, §9, §8

[10] = system: K-Ras^G12V-induced lung tumors; conditions: p53-deficient background; cited from earlier work
[11] = GSC-derived xenografts, vs vehicle

Compound | diameter of spheres [1] | number of spheres [1] | total TRF1 protein levels (western blot) [2] | Mice pathologies after long-term treatment ([3]; one line per mouse (Mice 1-4)) | signs of sickness or morbidity ([3]; treated cohorts compared to the placebo group) | TRF1 foci (immunofluorescence) [4] | proliferation marker Ki67-positive cells in tumors [5, 11] | γH2AX DNA damage marker positive cells in tumors [5, 11] | tumor areas (caliper follow-up) ([5]; h676 xenograft, oral 75 mg/kg 5 days/week, vs vehicle) | decrease of TRF1 protein levels in tumors (immunofluorescence) ([5]; h676 xenograft, vs placebo) | tumor size post-mortem ([5]; h676 xenograft, vs placebo) | tumor weight post-mortem ([5]; h676 xenograft, vs placebo) | histological analysis of the tumors ([5]; xenografts after treatment) | diameter of spheres [6] | number of spheres [6] | crossing the brain blood barrier [7] | diameter of neurospheres [8] | number of neurospheres [8] | tumor areas (caliper follow-up) [9] | growth of already established lung adenocarcinomas [10]
CS(=O)(=O)N1CCN(Cc2cc3c(N4CCOCC4)nc(-c4cnc(N)nc4)cn3n2)CC1 [ETP-47037] | significant drastic reduction | significant drastic reduction | effectively reduced | Mice 3: dermatitis; also recorded: Mice 4: dermatitis; also recorded: Mice 2: dermatitis | did not detect any signs of sickness or morbidity | effectively reduced | reduces proliferation | induces DNA damage | drastic reduction | 80% | striking decrease | striking decrease | decreased cellularity in the tumors, together with necrotic areas, apoptotic bodies, compacted chromatin and fragmented DNA | significant drastic reduction | significant drastic reduction | not crossing the brain blood barrier | strong reduction | strong reduction | drastic reduction | effectively impair the growth
Cc1cnc2c(N3CCOCC3)nc(-c3ccc(NC(=O)Nc4ccc(C(=O)N5CCN(C)CC5)cc4)cc3)cn12 [ETP-47228] | significant drastic reduction | significant drastic reduction | effectively reduced | – | – | effectively reduced | – | – | – | – | – | – | – | significant drastic reduction | significant drastic reduction | – | strong reduction | strong reduction | – | effectively impair the growth

— US20220054496A1, “MODULATION OF TRF1 FOR BRAIN CANCER TREATMENT” (Fundación Del Sector Público Estatal Centro Nacional De …, priority 2018, published 2022)
